Source: patent US20230157952A1, “METHOD FOR IMPROVING THE STABILITY OF A PHARMACEUTICAL COMPOSITION COMPRISING A HIGH PENETRATION DRUG, AND THE PHARMACEUTICAL COMPOSITION OBTAINED THEREFROM” (Techfields Inc., priority 2020, published 2023)
One block for each compound: values may come before it.

Assay: Effect of temperature (and pH) on the stability of the solution (purity)
Format: physicochemical
Conditions: 7% solution in water

Purity(%) at day 0 (pH 1.0, day 0): 98.0 ± 0.3% | Purity(%) at day 21 (5° C.) (pH 1.0, day 21, 5° C.): 92.7 ± 0.3% | Purity(%) at day 21 (25° C.) (pH 1.0, day 21, 25° C.): 69.1 ± 0.3% | Purity(%) at day 21 (40° C.) (pH 1.0, day 21, 40° C.): 16.3 ± 0.3% | Purity (%) at day 21 (60° C.) (pH 1.0, day 21, 60° C.): 0% | Purity(%) at day 0 (pH 2.0, day 0): 98.1 ± 0.3% | Purity(%) at day 21 (5° C.) (pH 2.0, day 21, 5° C.): 95.9 ± 0.3% | Purity(%) at day 21 (25° C.) (pH 2.0, day 21, 25° C.): 83.5 ± 0.3% | Purity(%) at day 21 (40° C.) (pH 2.0, day 21, 40° C.): 27.5 ± 0.3% | Purity (%) at day 21 (60° C.) (pH 2.0, day 21, 60° C.): 0% | Purity(%) at day 0 (pH 3.0, day 0): 98.3 ± 0.2% | Purity(%) at day 21 (5° C.) (pH 3.0, day 21, 5° C.): 97.4 ± 0.3% | Purity(%) at day 21 (25° C.) (pH 3.0, day 21, 25° C.): 94.6 ± 0.2% | Purity(%) at day 21 (40° C.) (pH 3.0, day 21, 40° C.): 49.3 ± 0.2% | Purity (%) at day 21 (60° C.) (pH 3.0, day 21, 60° C.): 0% | Purity(%) at day 0 (pH 3.7, day 0): 98.4 ± 0.2% | Purity(%) at day 21 (5° C.) (pH 3.7, day 21, 5° C.): 97.7 ± 0.2% | Purity(%) at day 21 (25° C.) (pH 3.7, day 21, 25° C.): 97.3 ± 0.2% | Purity(%) at day 21 (40° C.) (pH 3.7, day 21, 40° C.): 59.9 ± 0.2% | Purity (%) at day 21 (60° C.) (pH 3.7, day 21, 60° C.): 19.3 ± 0.3% | Purity(%) at day 0 (pH 4.0, day 0): 98.5 ± 0.1% | Purity(%) at day 21 (5° C.) (pH 4.0, day 21, 5° C.): 98.2 ± 0.2% | Purity(%) at day 21 (25° C.) (pH 4.0, day 21, 25° C.): 97.5 ± 0.2% | Purity(%) at day 21 (40° C.) (pH 4.0, day 21, 40° C.): 70.7 ± 0.2% | Purity (%) at day 21 (60° C.) (pH 4.0, day 21, 60° C.): 23.6 ± 0.3% | Purity(%) at day 0 (pH 4.3, day 0): 98.5 ± 0.2% | Purity(%) at day 21 (5° C.) (pH 4.3, day 21, 5° C.): 98.2 ± 0.2% | Purity(%) at day 21 (25° C.) (pH 4.3, day 21, 25° C.): 97.6 ± 0.1% | Purity(%) at day 21 (40° C.) (pH 4.3, day 21, 40° C.): 70.1 ± 0.2% | Purity (%) at day 21 (60° C.) (pH 4.3, day 21, 60° C.): 27.7 ± 0.2% | Purity(%) at day 0 (pH 4.6, day 0): 98.5 ± 0.1% | Purity(%) at day 21 (5° C.) (pH 4.6, day 21, 5° C.): 98.2 ± 0.2% | Purity(%) at day 21 (25° C.) (pH 4.6, day 21, 25° C.): 97.5 ± 0.2% | Purity(%) at day 21 (40° C.) (pH 4.6, day 21, 40° C.): 59.3 ± 0.2% | Purity (%) at day 21 (60° C.) (pH 4.6, day 21, 60° C.): 22.3 ± 0.2% | Purity(%) at day 0 (pH 5.0, day 0): 98.4 ± 0.2% | Purity(%) at day 21 (5° C.) (pH 5.0, day 21, 5° C.): 97.5 ± 0.2% | Purity(%) at day 21 (25° C.) (pH 5.0, day 21, 25° C.): 94.9 ± 0.2% | Purity(%) at day 21 (40° C.) (pH 5.0, day 21, 40° C.): 45.8 ± 0.3% | Purity (%) at day 21 (60° C.) (pH 5.0, day 21, 60° C.): 5.9 ± 0.2% | Purity(%) at day 0 (pH 6.0, day 0): 98.2 ± 0.2% | Purity(%) at day 21 (5° C.) (pH 6.0, day 21, 5° C.): 95.3 ± 0.2% | Purity(%) at day 21 (25° C.) (pH 6.0, day 21, 25° C.): 88.8 ± 0.2% | Purity(%) at day 21 (40° C.) (pH 6.0, day 21, 40° C.): 28.6 ± 0.2% | Purity (%) at day 21 (60° C.) (pH 6.0, day 21, 60° C.): 0% | Purity(%) at day 0 (pH 7.0, day 0): 98.0 ± 0.3% | Purity(%) at day 21 (5° C.) (pH 7.0, day 21, 5° C.): 90.2 ± 0.3% | Purity(%) at day 21 (25° C.) (pH 7.0, day 21, 25° C.): 60.9 ± 0.2% | Purity(%) at day 21 (40° C.) (pH 7.0, day 21, 40° C.): 17.4 ± 0.3% | Purity (%) at day 21 (60° C.) (pH 7.0, day 21, 60° C.): 0% | Purity(%) at day 0 (pH 8.0, day 0): 97.7 ± 0.3% | Purity(%) at day 21 (5° C.) (pH 8.0, day 21, 5° C.): 79.7 ± 0.3% | Purity(%) at day 21 (25° C.) (pH 8.0, day 21, 25° C.): 49.9 ± 0.3% | Purity(%) at day 21 (40° C.) (pH 8.0, day 21, 40° C.): 0% | Purity (%) at day 21 (60° C.) (pH 8.0, day 21, 60° C.): 0%
SMILES: CCN(CC)CCOC(=O)CCc1ccc2cc(OC)ccc2c1.Cl

Purity(%) at day 0 (pH 1.0, day 0): 97.2 ± 0.3% | Purity(%) at day 21 (5° C.) (pH 1.0, day 21, 5° C.): 91.1 ± 0.4% | Purity(%) at day 21 (25° C.) (pH 1.0, day 21, 25° C.): 67.5 ± 0.4% | Purity(%) at day 21 (40° C.) (pH 1.0, day 21, 40° C.): 10.4 ± 0.4% | Purity (%) at day 21 (60° C.) (pH 1.0, day 21, 60° C.): 0% | Purity(%) at day 0 (pH 2.0, day 0): 97.3 ± 0.3% | Purity(%) at day 21 (5° C.) (pH 2.0, day 21, 5° C.): 94.7 ± 0.3% | Purity(%) at day 21 (25° C.) (pH 2.0, day 21, 25° C.): 81.1 ± 0.3% | Purity(%) at day 21 (40° C.) (pH 2.0, day 21, 40° C.): 23.6 ± 0.3% | Purity (%) at day 21 (60° C.) (pH 2.0, day 21, 60° C.): 0% | Purity(%) at day 0 (pH 3.0, day 0): 97.6 ± 0.2% | Purity(%) at day 21 (5° C.) (pH 3.0, day 21, 5° C.): 96.3 ± 0.2% | Purity(%) at day 21 (25° C.) (pH 3.0, day 21, 25° C.): 92.2 ± 0.2% | Purity(%) at day 21 (40° C.) (pH 3.0, day 21, 40° C.): 45.7 ± 0.3% | Purity (%) at day 21 (60° C.) (pH 3.0, day 21, 60° C.): 0% | Purity(%) at day 0 (pH 3.7, day 0): 97.6 ± 0.2% | Purity(%) at day 21 (5° C.) (pH 3.7, day 21, 5° C.): 97.3 ± 0.2% | Purity(%) at day 21 (25° C.) (pH 3.7, day 21, 25° C.): 96.8 ± 0.2% | Purity(%) at day 21 (40° C.) (pH 3.7, day 21, 40° C.): 55.5 ± 0.2% | Purity (%) at day 21 (60° C.) (pH 3.7, day 21, 60° C.): 13.5 ± 0.3% | Purity(%) at day 0 (pH 4.0, day 0): 97.9 ± 0.1% | Purity(%) at day 21 (5° C.) (pH 4.0, day 21, 5° C.): 97.4 ± 0.1% | Purity(%) at day 21 (25° C.) (pH 4.0, day 21, 25° C.): 96.9 ± 0.1% | Purity(%) at day 21 (40° C.) (pH 4.0, day 21, 40° C.): 60.3 ± 0.2% | Purity (%) at day 21 (60° C.) (pH 4.0, day 21, 60° C.): 19.7 ± 0.3% | Purity(%) at day 0 (pH 4.3, day 0): 97.7 ± 0.2% | Purity(%) at day 21 (5° C.) (pH 4.3, day 21, 5° C.): 97.3 ± 0.1% | Purity(%) at day 21 (25° C.) (pH 4.3, day 21, 25° C.): 96.7 ± 0.1% | Purity(%) at day 21 (40° C.) (pH 4.3, day 21, 40° C.): 63.1 ± 0.1% | Purity (%) at day 21 (60° C.) (pH 4.3, day 21, 60° C.): 16.8 ± 0.2% | Purity(%) at day 0 (pH 4.6, day 0): 97.8 ± 0.1% | Purity(%) at day 21 (5° C.) (pH 4.6, day 21, 5° C.): 97.3 ± 0.2% | Purity(%) at day 21 (25° C.) (pH 4.6, day 21, 25° C.): 95.9 ± 0.2% | Purity(%) at day 21 (40° C.) (pH 4.6, day 21, 40° C.): 57.3 ± 0.2% | Purity (%) at day 21 (60° C.) (pH 4.6, day 21, 60° C.): 15.5 ± 0.3% | Purity(%) at day 0 (pH 5.0, day 0): 97.7 ± 0.3% | Purity(%) at day 21 (5° C.) (pH 5.0, day 21, 5° C.): 96.1 ± 0.2% | Purity(%) at day 21 (25° C.) (pH 5.0, day 21, 25° C.): 93.9 ± 0.3% | Purity(%) at day 21 (40° C.) (pH 5.0, day 21, 40° C.): 38.9 ± 0.3% | Purity (%) at day 21 (60° C.) (pH 5.0, day 21, 60° C.): 1.5 ± 0.3% | Purity(%) at day 0 (pH 6.0, day 0): 97.5 ± 0.3% | Purity(%) at day 21 (5° C.) (pH 6.0, day 21, 5° C.): 94.4 ± 0.3% | Purity(%) at day 21 (25° C.) (pH 6.0, day 21, 25° C.): 88.9 ± 0.2% | Purity(%) at day 21 (40° C.) (pH 6.0, day 21, 40° C.): 21.6 ± 0.2% | Purity (%) at day 21 (60° C.) (pH 6.0, day 21, 60° C.): 0% | Purity(%) at day 0 (pH 7.0, day 0): 97.3 ± 0.3% | Purity(%) at day 21 (5° C.) (pH 7.0, day 21, 5° C.): 89.0 ± 0.3% | Purity(%) at day 21 (25° C.) (pH 7.0, day 21, 25° C.): 59.8 ± 0.3% | Purity(%) at day 21 (40° C.) (pH 7.0, day 21, 40° C.): 5.4 ± 0.3% | Purity (%) at day 21 (60° C.) (pH 7.0, day 21, 60° C.): 0% | Purity(%) at day 0 (pH 8.0, day 0): 96.9 ± 0.4% | Purity(%) at day 21 (5° C.) (pH 8.0, day 21, 5° C.): 77.1 ± 0.3% | Purity(%) at day 21 (25° C.) (pH 8.0, day 21, 25° C.): 44.5 ± 0.4% | Purity(%) at day 21 (40° C.) (pH 8.0, day 21, 40° C.): 0% | Purity (%) at day 21 (60° C.) (pH 8.0, day 21, 60° C.): 0%
SMILES: CCN(CC)CCOC(=O)CC1=C(C)C(=Cc2ccc([S+](C)[O-])cc2)c2ccc(F)cc21.Cl (centres unmarked)
